Earlier results, collected in patent US9624424B2, “Large stokes shift dyes” (LIFE TECHNOLOGIES CORPORATION, priority 2009, dated 2017).

Extinction coefficient around 605 nm (commercial dyes emitting at 750-800 nm), ~15,000 M^−1cm^−1:
CCN1C(=CC=CC=CC=CC2=[N+](CCCCCC(=O)O)c3ccc(S(=O)(=O)O)cc3C2(C)C)C(C)(C)c2cc(S(=O)(=O)[O-])ccc21 [Cy7]
CC(C)(C)c1cc(/C=C/C=C/C=C2/N(CCCS(=O)(=O)[O-])c3ccc(S(=O)(=O)[O-])cc3C2(C)CCCC(=O)O)c2ccc(=[N+](CCCS(=O)(=O)[O-])CCCS(=O)(=O)[O-])cc-2o1.[Na+].[Na+].[Na+] (stereo not shown) [Dy734]
CCN1c2cc3c(cc2C(C)=CC1(C)C)C(=CC=CC=CC1=[N+](CCCCCC(=O)O)c2ccc(S(=O)(=O)[O-])cc2C1(C)C)C=C(C(C)(C)C)O3 [Dy750]
AlexaFluor 750 [AF750]
